Experimental data as given in article PMC12077799, “Fragment-based drug discovery for transthyretin kinetic stabilisers using a novel capillary zone electrophoresis method” (PLOS One, 2025).

Target: T1, Human transthyretin (TTR) (Homo sapiens, UniProt P02766)
T1 construct: purchased SCIPAC (Sittingbourne, Kent, UK) P171-1
Experiment: Co-crystallisation of TTR-ligand complex, X-ray hit confirmation
Format: binding
Conditions: fragment seen in ligand-omitted difference density at >= 2σ in one or both binding sites; full or partial density
Description: Crystals were grown by vapor diffusion using a published crystallisation cocktail (100 mM HEPES pH 7.5, 200 mM CaCl2, 28% v/v PEG400) at 21 °C [29]. The hanging drop contained 1 μL of crystallisation cocktail, 1 μL of diluted ligand and 1 μL of TTR protein solution (85 μM). […] Crystals were harvested and flash cooled in a N2 cryostream or dipped into liquid ethane without cryoprotectant. Data was collected at Diamond Light Source (Oxon, UK) beamline I24, I04 or I04-1 (Pilatus 6M or ADSC Q315) or the European Synchrotron Radiation Facility (ESRF, Grenoble, France) beamline ID29 (Pilatus 6M-F) or in-house (Bruker X8 Diffractometer with APEXII CCD detector). Crystal unit cell was initially indexed by software MOSFLM [30] and LABELIT [31] within the EDNA [32] automatic data processing workflow. Diffraction image integration was performed by XDS [33] and reflection intensities were scaled by SCALA [34] or by PROTEUM2 if collected in-house. Phases were obtained by molecular replacement method using PHASER [35], 1DVQ from the Protein Data Bank (PDB) was used as the search model. Atomic positions of the initial model were refined by REFMAC5 [36]. Model building and ligand fitting was completed using COOT [37]. Model graphics were generated using CCP4MG [38]. Crystallographic statistics of all structures can be found in S4 Table.

## c1ccc2c(-c3cn[nH]c3)ccnc2c1 [SFL001535, 4-(3H-pyrazol-4-yl)quinoline]
  Confirmed by X-ray: Yes 9H7I
